Measured values reported in patent publication US20060189684A1, “3-Phenylfuran-2-one derivatives as cox-2 inhibitor” (priority 2003, published 2006).

Key:
[1] = target: T1, COX-1 (Homo sapiens, UniProt P23219); test: COX-1 activity in human whole blood (TXB2, calcium ionophore A23187); format: cell-based; details: 24 h at 37° C., A23187 25 μM, TXB2 by ELISA
T1 construct: from tissue; host or cells: fresh heparinized human whole blood from healthy volunteers
Experimental: (§1) COX-1 and COX-2 Activities in Human Whole Blood
Fresh blood from healthy volunteers who had not taken any non-steroidal anti-inflammatory drugs for at least 7 days prior to blood extraction was collected in heparinized tubes (20 units of heparin per ml). For the COX-1 activity determination, 500 μl aliquots of blood were incubated with either 5 μl vehicle (dimethylsulphoxide) or 5 μl of a test compound solution for 24 h at 37° C. Calcium ionophore A23187 (25 μM) was added 20 min before the incubation was ended. Plasma was separated by centrifugation (10 min at 13000 rpm) and kept at −30° C. until TXB2 levels were measured using an enzyme immunoassay kit (ELISA).
The effect of the compounds was evaluated by incubating each compound at five to six different concentrations with triplicate determinations. IC50 values were obtained by non-linear regression using InPlot, GraphPad software on an IBM computer.

[2] = target: T2, COX-2 (Homo sapiens, UniProt P35354); test: COX-2 activity in human whole blood (PGE2, LPS-induced); format: cell-based; details: for IC50: human whole blood, LPS 10 μg/ml, 24 h at 37° C., PGE2 by ELISA; for Ratio COX-1/COX-2: ratio of human whole blood IC50 values
T2 construct: blood were incubated in the presence of LPS (10 μg/ml) for 24 h at 37° C. in order to induce the COX-2 expression; from tissue; host or cells: fresh heparinized human whole blood from healthy volunteers, LPS-stimulated
T2 sequence (P35354 18-604): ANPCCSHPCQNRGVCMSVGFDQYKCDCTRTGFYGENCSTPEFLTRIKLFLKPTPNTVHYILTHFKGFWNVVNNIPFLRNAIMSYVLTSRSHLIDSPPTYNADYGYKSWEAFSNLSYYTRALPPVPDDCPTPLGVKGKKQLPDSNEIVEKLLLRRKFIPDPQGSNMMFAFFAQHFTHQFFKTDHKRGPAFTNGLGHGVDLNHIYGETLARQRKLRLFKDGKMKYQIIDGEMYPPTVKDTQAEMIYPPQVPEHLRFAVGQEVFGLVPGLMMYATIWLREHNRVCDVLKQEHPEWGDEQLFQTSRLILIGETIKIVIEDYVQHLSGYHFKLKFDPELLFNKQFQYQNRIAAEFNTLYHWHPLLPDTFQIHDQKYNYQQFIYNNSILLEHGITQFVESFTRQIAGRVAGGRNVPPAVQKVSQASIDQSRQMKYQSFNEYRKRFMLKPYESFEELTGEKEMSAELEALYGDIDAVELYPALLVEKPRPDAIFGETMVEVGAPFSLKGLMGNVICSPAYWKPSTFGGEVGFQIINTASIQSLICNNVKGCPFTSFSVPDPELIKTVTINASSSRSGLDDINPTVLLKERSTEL
Experimental: as §1
For the COX-2 activity determination, 500 μl aliquots of blood were incubated in the presence of LPS (10 μg/ml) for 24 h at 37° C. in order to induce the COX-2 expression (Patriagnani et al., J. Pharm. Exper. Ther. 271; 1705-1712 (1994)). Plasma was separated by centrifugation (10 min at 13000 rpm) and kept at −30° C. until PGE2 levels were measured using an enzyme immunoassay kit (ELISA). The effects of inhibitors were studied by incubating each compound (5 μl aliquots) at five to six different concentrations with triplicate determinations in the presence of LPS for 24 hours. IC50 values were obtained by non-linear regression using InPlot, GraphPad software on an IBM computer.

T1 sequence (P23219 24-599): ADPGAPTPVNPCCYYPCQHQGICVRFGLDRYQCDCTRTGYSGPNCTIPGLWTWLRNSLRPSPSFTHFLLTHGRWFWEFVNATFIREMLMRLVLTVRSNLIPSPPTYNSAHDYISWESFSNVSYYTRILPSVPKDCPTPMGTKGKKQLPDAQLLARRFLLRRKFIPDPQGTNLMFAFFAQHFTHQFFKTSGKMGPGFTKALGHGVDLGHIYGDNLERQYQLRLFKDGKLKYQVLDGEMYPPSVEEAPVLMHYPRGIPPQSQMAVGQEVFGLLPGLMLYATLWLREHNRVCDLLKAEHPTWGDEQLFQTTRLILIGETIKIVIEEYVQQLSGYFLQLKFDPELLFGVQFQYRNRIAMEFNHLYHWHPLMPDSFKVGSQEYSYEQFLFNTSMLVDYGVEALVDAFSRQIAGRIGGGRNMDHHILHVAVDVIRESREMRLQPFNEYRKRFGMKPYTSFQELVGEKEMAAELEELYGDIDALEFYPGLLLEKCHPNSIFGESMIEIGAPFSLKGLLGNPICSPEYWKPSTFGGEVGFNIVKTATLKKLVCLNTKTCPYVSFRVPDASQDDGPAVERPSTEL

| Compound | IC50 [1] | IC50 [2] | Ratio COX-1/COX-2 [2] |
| --- | --- | --- | --- |
| C[S@@+]([O-])c1ccc(C2=C(c3ccccc3)C(=O)OC2)cc1 [4-[4(methylsulfinyl)phenyl]-3-phenylfuran-2(5H)-one (Enantiomer 1a)] | 32.2 µM | 4.22 µM | 7.6 |
| C[S@+]([O-])c1ccc(C2=C(c3ccccc3)C(=O)OC2)cc1 [4-[4(methylsulfinyl)phenyl]-3-phenylfuran-2(5H)-one (Enantiomer 1b)] | 37.8 µM | 2.1 µM | 18 |
| C[S+]([O-])c1ccc(C2=C(c3ccccc3)C(=O)OC2)cc1 (racemic) [4-[4(methylsulfinyl)phenyl]-3-phenylfuran-2(5H)-one (racemate), 4-[4-(Methylsulfinyl)phenyl)-3-phenylfuran-2(6H)-one] | 33.4 µM | – | – |
